From article PMC12720774, “Detergents alter the stability and lipid binding properties of the CD1d immunoreceptor” (Protein Science : A Publication of the Protein Society, 2025)
“And” between values parts separate entries of the source, which are not always exact repeats. Equal entries are not always repeated. Structures can show the parent of a compound that is named as a salt. Where two headings read alike, the source gives them in different places.

What was measured:
[1] = biological target: T1, AF647‐labeled hCD1d (Homo sapiens, UniProt P15813); assay: Microscale thermophoresis (MST) binding assay
T1 construct: TEV protease cleavage site ENLYFQS (C); BirA biotinylation site (C); His7 (C); made in house; host or cells: TurboCHO cells (GenScript)
T1 sequence (P15813 whole entry, looked up): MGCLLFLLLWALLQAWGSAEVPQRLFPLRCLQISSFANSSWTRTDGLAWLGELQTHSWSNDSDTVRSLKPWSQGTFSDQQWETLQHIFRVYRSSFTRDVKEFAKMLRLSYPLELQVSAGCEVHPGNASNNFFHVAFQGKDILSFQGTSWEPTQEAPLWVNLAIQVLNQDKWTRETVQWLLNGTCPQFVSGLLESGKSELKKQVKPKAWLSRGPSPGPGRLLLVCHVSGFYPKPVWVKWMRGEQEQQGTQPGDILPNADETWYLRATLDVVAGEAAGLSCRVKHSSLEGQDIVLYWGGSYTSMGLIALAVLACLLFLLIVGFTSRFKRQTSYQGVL
Excerpt: (§1) The experimental limitations of ITF, such as low instrument sensitivity, high sample consumption, signal overlap with some ligands, and low throughput (Fossum et al., [2023]), made it necessary to employ alternative, complementary assays to quantify detergent binding to hCD1d. […] MST measures the diffusion of fluorescent molecules in response to microscopic temperature gradients (Seidel et al., [2013]). When a protein forms a complex with a ligand, changes in hydrodynamic properties, charge, or solvation energy alter its thermophoretic behavior, allowing detection of binding events. To perform MST experiments, Alexa Fluor 647 (AF647) dye was covalently attached to the primary amines of hCD1d via standard N‐hydroxysuccinimide coupling chemistry (Anderson et al., [1964]). The concentration of AF647‐hCD1d was kept constant, and the change in MST signal was measured as a function of increasing detergent concentration (Figure S3). Like ITF, any lipid or detergent that destabilizes CD1 can also alter the MST signal since unfolding changes the protein's Stokes radius and its thermophoretic behavior. […] This is why we compare MST results with ITF and nanoDSF, as described below.
(§2) For MST, hCD1d was fluorescently labeled with AF647‐NHS Ester (Invitrogen #A20006). Briefly, a 10 mM stock of AF647‐NHS was prepared in anhydrous DMSO. Then, 100 μL of 50 μM hCD1d in 1X PBS pH 7.4 was mixed with 1 μL of 10 mM AF647‐NHS (1:2 molar ratio of protein: dye). The mixture was allowed to react for 1 h in the dark at 25°C. Unreacted dye was removed from the protein–dye conjugate by performing size exclusion chromatography in the dark with a Superdex 200 Increase 10/300 GL column at a flow rate of 0.5 mL/min in SEC buffer (100 mM NaCl, 20 mM sodium phosphate, pH 7.2). The degree of labeling was determined by a NanoDrop spectrophotometer at A647 nm (dye absorbance) and A280 nm (hCD1d absorbance). The degree of labeling was determined from the ratio of dye concentration to protein concentration. The degree of labeling was ~75%.
(§3) MST experiments were performed using a Monolith NT.115 instrument (NanoTemper Technologies) using Monolith standard capillaries and the red excitation laser setup. The following settings were applied for all MST experiments: excitation power: 30%–50%, MST power: medium, before MST time: 3 s, MST on time (IR laser): 20 seconds, and after MST time: 1 s. MST measurements were analyzed using the Monolith Affinity Analysis software v2.3 and exported for plotting in GraphPad Prism v10.1. Three replicates were performed, and data are presented as the mean ± standard deviation (n = 3).
(§4) MST measurements of 100 nM AF647‐hCD1d were acquired in the absence and presence of detergents in 1X PBS pH 7.4 at 25°C. Prior to data acquisition, hCD1d and detergent or lipid samples were incubated at 37°C overnight (~12 h) to simulate in vitro and in vivo loading conditions. […] For 18:1 LPC experiments: MST data of 100 nM AF647‐hCD1d were acquired in the absence and presence of 18:1 LPC in 1X PBS pH 7.4 at 25°C.

[2] = biological target: T2, AF647‐labeled hCD1d (Homo sapiens, UniProt P15813+P61769); assay: Microscale thermophoresis (MST) binding assay
T2 construct: TEV protease cleavage site ENLYFQS (C); BirA biotinylation site (C); His7 (C); made in house; host or cells: TurboCHO cells (GenScript)
T2 sequence (P61769+P15813 fused): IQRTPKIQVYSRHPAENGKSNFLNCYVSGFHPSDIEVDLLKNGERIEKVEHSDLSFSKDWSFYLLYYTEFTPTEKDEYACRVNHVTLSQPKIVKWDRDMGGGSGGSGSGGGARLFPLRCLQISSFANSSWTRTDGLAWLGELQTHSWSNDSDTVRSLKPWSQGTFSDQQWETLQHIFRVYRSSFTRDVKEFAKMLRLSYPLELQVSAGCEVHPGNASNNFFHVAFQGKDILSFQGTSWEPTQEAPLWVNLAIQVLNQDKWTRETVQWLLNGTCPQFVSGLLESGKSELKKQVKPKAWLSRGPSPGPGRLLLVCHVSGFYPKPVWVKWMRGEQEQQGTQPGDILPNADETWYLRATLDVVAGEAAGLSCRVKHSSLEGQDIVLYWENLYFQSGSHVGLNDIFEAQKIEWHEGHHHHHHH
Excerpt: as §1, §2, §3, §4

[3] = K D (MST), detergent with 100 nM AF647‐labeled hCD1d, 25°C, apparent
[4] = 0.001 M detergent, 100 nM AF647‐hCD1d
[5] = Figure 5B, detergent binding to hCD1d, read-out: MST - Kd (uM) average
[6] = detergent with 100 nM AF647‐labeled hCD1d, 25°C, apparent, read-out: K D (MST)

Compound	Kd [1, 3] [µM]	Fnorm (rep 1-3) ([2]; 4.88281e-7 M detergent)	Fnorm (rep 1-3) ([2]; 9.76563e-7 M detergent)	Fnorm (rep 1-3) ([2]; 1.95313e-6 M detergent)	Fnorm (rep 1-3) ([2]; 3.90625e-6 M detergent)	Fnorm (rep 1-3) ([2]; 7.8125e-6 M detergent)	Fnorm (rep 1-3) ([2]; 1.5625e-5 M detergent)	Fnorm (rep 1-3) ([2]; 3.125e-5 M detergent)	Fnorm (rep 1-3) ([2]; 6.25e-5 M detergent)	Fnorm (rep 1-3) ([2]; 0.000125 M detergent)	Fnorm (rep 1-3) ([2]; 0.00025 M detergent)	Fnorm (rep 1-3) ([2]; 0.0005 M detergent)	Fnorm (rep 1-3) [2, 4]	binding to hCD1d by MST (in words) [2]	Fnorm (rep 1-3) ([2]; 3.05176e-8 M detergent)	Fnorm (rep 1-3) ([2]; 6.10352e-8 M detergent)	Fnorm (rep 1-3) ([2]; 1.2207e-7 M detergent)	Fnorm (rep 1-3) ([2]; 2.44141e-7 M detergent)	Kd [1, 5] [µM]	Kd [1, 6] [µM]	also measured
CCCCCCCCCCCCCCCC[N+](C)(C)C [CTAB, hexadecyltrimethylammonium bromide]	10.9 ± 1.2	812.075 ‰ and 810.216 ‰ and 807.19 ‰	814.18 ‰ and 810.332 ‰ and 807.136 ‰	814.445 ‰ and 813.166 ‰ and 810.178 ‰	815.986 ‰ and 818.175 ‰ and 815.532 ‰	824.731 ‰ and 823.149 ‰ and 822.329 ‰	835 ‰ and 828.362 ‰ and 831.779 ‰	849.376 ‰ and 847.531 ‰ and 847.477 ‰	858.509 ‰ and 854.12 ‰ and 851.197 ‰	844.143 ‰ and 841.907 ‰ and 839.82 ‰	844.455 ‰ and 843.492 ‰ and 841.952 ‰	845.737 ‰ and 843.294 ‰ and 845.557 ‰	845.54 ‰ and 843.477 ‰ and 843.19 ‰	–	–	–	–	–	–	–	Kd ([1]; MST - Kd (uM) average, Figure 5B, detergent binding to hCD1d): 10.9 µM
CCCCCCCCCCCCOS(=O)(=O)O [SDS, sodium dodecyl sulfate]	> 10000	790.042 ‰ and 793.566 ‰ and 789.803 ‰	792.907 ‰ and 794.378 ‰ and 788.273 ‰	792.77 ‰ and 792.711 ‰ and 788.545 ‰	794.169 ‰ and 793.199 ‰ and 789.062 ‰	793.805 ‰ and 798.209 ‰ and 788.93 ‰	795.098 ‰ and 796.977 ‰ and 790.788 ‰	796.19 ‰ and 799.152 ‰ and 792.387 ‰	800.38 ‰ and 802.553 ‰ and 795.217 ‰	801.158 ‰ and 800.337 ‰ and 800.706 ‰	801.719 ‰ and 804.302 ‰ and 803.561 ‰	816.347 ‰ and 820.909 ‰ and 814.082 ‰	825.168 ‰ and 825.899 ‰ and 822.956 ‰	observable binding	794.561 ‰ and 796.538 ‰ and 787.226 ‰	793.573 ‰ and 796.65 ‰ and 788.808 ‰	795.629 ‰ and 795.536 ‰ and 789.052 ‰	792.166 ‰ and 793.398 ‰ and 784.145 ‰	–	–	Kd ([1]; K D, detergent class summary, approximate, collectively from ITF and MST): 10 to 500 µM
Tween 80	–	–	–	–	–	–	–	–	–	–	–	–	–	–	–	–	–	–	–	–	Fnorm (rep 1-3) ([2]; 6.10352e-9 M detergent): 805.067 ‰ and 809.857 ‰ and 804.507 ‰; Fnorm (rep 1-3) ([2]; 1.2207e-8 M detergent): 806.458 ‰ and 809.351 ‰ and 805.026 ‰; Fnorm (rep 1-3) ([2]; 2.44141e-8 M detergent): 805.306 ‰ and 809.655 ‰ and 805.09 ‰; Fnorm (rep 1-3) ([2]; 4.88281e-8 M detergent): 807.116 ‰ and 806.609 ‰ and 806.1 ‰; Fnorm (rep 1-3) ([2]; 9.76563e-8 M detergent): 804.905 ‰ and 807.619 ‰ and 802.759 ‰; Fnorm (rep 1-3) ([2]; 1.95313e-7 M detergent): 804.684 ‰ and 807.405 ‰ and 803.094 ‰; Fnorm (rep 1-3) ([2]; 3.90625e-7 M detergent): 805.673 ‰ and 808.266 ‰ and 805.393 ‰; Fnorm (rep 1-3) ([2]; 7.8125e-7 M detergent): 808.872 ‰ and 807.822 ‰ and 807.967 ‰; Fnorm (rep 1-3) ([2]; 1.5625e-6 M detergent): 807.024 ‰ and 810.305 ‰ and 805.453 ‰; Fnorm (rep 1-3) ([2]; 3.125e-6 M detergent): 820.597 ‰ and 825.116 ‰ and 819.282 ‰; Fnorm (rep 1-3) ([2]; 6.25e-6 M detergent): 847.228 ‰ and 846.294 ‰ and 841.909 ‰; Fnorm (rep 1-3) ([2]; 1.25e-5 M detergent): 846.069 ‰ and 855.71 ‰ and 840.031 ‰; Fnorm (rep 1-3) ([2]; 2.5e-5 M detergent): 844.894 ‰ and 848.667 ‰ and 837.578 ‰; Fnorm (rep 1-3) ([2]; 5e-5 M detergent): 846.685 ‰ and 845.769 ‰ and 838.247 ‰; Fnorm (rep 1-3) ([2]; 0.0001 M detergent): 846.112 ‰ and 846.019 ‰ and 837.99 ‰; Fnorm (rep 1-3) ([2]; 0.0002 M detergent): 847.908 ‰ and 844.822 ‰ and 840.824 ‰; Kd [2, 5]: 3.24 µM; Kd [2, 6]: 3.2 ± 0.1 µM
CCCCCCCCO[C@@H]1O[C@H](CO)[C@@H](O)[C@H](O)[C@H]1O [ODG, n‐octyl‐β‐D‐glucopyranoside]	–	–	842.328 ‰ and 845.864 ‰ and 848.262 ‰	843.26 ‰ and 846.856 ‰ and 850.006 ‰	843.026 ‰ and 843.822 ‰ and 848.605 ‰	843.431 ‰ and 845.217 ‰ and 850.155 ‰	843.398 ‰ and 846.496 ‰ and 848.167 ‰	843.251 ‰ and 846.684 ‰ and 848.174 ‰	844.533 ‰ and 847.002 ‰ and 847.612 ‰	844.648 ‰ and 847.89 ‰ and 849.866 ‰	846.571 ‰ and 844.204 ‰ and 849.145 ‰	846.14 ‰ and 848.026 ‰ and 848.57 ‰	845.727 ‰ and 847.773 ‰ and 849.553 ‰	–	–	–	–	–	6580	6580 ± 186	Fnorm (rep 1-3) ([2]; 0.002 M detergent): 847.311 ‰ and 851.671 ‰ and 850.904 ‰; Fnorm (rep 1-3) ([2]; 0.004 M detergent): 852.082 ‰ and 853.968 ‰ and 856.97 ‰; Fnorm (rep 1-3) ([2]; 0.008 M detergent): 864.475 ‰ and 866.313 ‰ and 870.655 ‰; Fnorm (rep 1-3) ([2]; 0.032 M detergent): 877.078 ‰ and 878.262 ‰ and 882.232 ‰
CCCCCCCCCCCC[N+](C)(C)[O-] [LDAO, lauryldimethylamine‐N‐oxide]	–	815.87 ‰ and 817.501 ‰ and 814.61 ‰	819.746 ‰ and 816.532 ‰ and 815.008 ‰	821.408 ‰ and 818.645 ‰ and 816.968 ‰	814.412 ‰ and 819.336 ‰ and 814.062 ‰	818.471 ‰ and 817.826 ‰ and 814.305 ‰	818.754 ‰ and 820.576 ‰ and 816.619 ‰	825.871 ‰ and 823.407 ‰ and 821.261 ‰	827.8 ‰ and 827.022 ‰ and 819.019 ‰	840.896 ‰ and 830.059 ‰ and 833.855 ‰	853.04 ‰ and 842.052 ‰ and 840.306 ‰	856.938 ‰ and 859.889 ‰ and 860.509 ‰	853.851 ‰ and 856.381 ‰ and 852.289 ‰	–	814.692 ‰ and 814.467 ‰ and 814.489 ‰	817.057 ‰ and 815.567 ‰ and 813.955 ‰	815.153 ‰ and 815.733 ‰ and 813.219 ‰	820.838 ‰ and 814.573 ‰ and 816.312 ‰	157	157 ± 58.6	–
C[C@H](CCC(=O)O)[C@H]1CC[C@H]2[C@@H]3CC[C@@H]4C[C@H](O)CC[C@]4(C)[C@H]3C[C@H](O)[C@]12C [Deoxycholate, sodium deoxycholate]	–	795.887 ‰ and 794.029 ‰ and 796.702 ‰	796.103 ‰ and 795.392 ‰ and 796.86 ‰	795.057 ‰ and 792.832 ‰ and 795.608 ‰	796.418 ‰ and 796.702 ‰ and 795.904 ‰	795.548 ‰ and 798.002 ‰ and 797.636 ‰	795.128 ‰ and 798.849 ‰ and 799.048 ‰	798.119 ‰ and 798.444 ‰ and 799.423 ‰	800.962 ‰ and 799.886 ‰ and 803.305 ‰	801.785 ‰ and 804.744 ‰ and 805.19 ‰	804.206 ‰ and 807.083 ‰ and 805.968 ‰	808.515 ‰ and 808.171 ‰ and 806.841 ‰	814.33 ‰ and 809.551 ‰ and 810.963 ‰	observable binding	795.701 ‰ and 796.724 ‰ and 797.98 ‰	794.625 ‰ and 796.029 ‰ and 797.315 ‰	793.156 ‰ and 796.701 ‰ and 795.845 ‰	795.335 ‰ and 795.616 ‰ and 795.028 ‰	103	> 10000	–
